Assay results from patent US20220280507A1, “USES OF 5-METHYLTETRAHYDROFOLATE AND ITS COMPOSITION” (Lianyungang Jinkang Hexin Pharmaceutical Co., Ltd., priority 2019, published 2022).
Like-named read-outs stand apart in the source and are kept apart here.

Assays:
TNF-α = assay: LPS-induced inflammatory response in astrocytes, TNF-α release (ELISA); format: cell-based, Kunming mice; conditions: culture supernatant, LPS 1 μg·ml-1 + substance 10 μg·ml-1, 24 h, n=6
Excerpt: Experiment 9 Inhibition of 5-Methyltetrahydrofolate and Curcumin on LPS-Induced Inflammatory Response in Astrocytes
The cerebral cortex of Kunming mice at 1˜2 d was taken out under aseptic conditions, washed 3 times with cold PBS after removing residual meninges and blood vessels, prepared into single cell suspension by blowing, centrifuged, the supernatant was discarded, and the precipitant was resuspended in AST basic medium (high-sugar DMEM containing 10% FBS). The suspension was inoculated into a culture flask coated with poly-L-lysine (0.1 mg/ml), and cultured in a CO2 incubator. After 24 h, tissue debris and non-adherent cells were removed by replacing the medium. Afterwards, the medium was replaced every 3 days until the cells reached 80% confluence, then the flask was placed on a constant temperature rotary shaker, where the suspension was centrifuged at 180 r/min, 37° C. for 18 h to remove oligodendrocytes and microglia from the upper layer. Then trypsin digestion was used for subculture. […]
LPS (1 μg·ml-1), LPS (1 μg·ml-1)+curcumin (10 μg·ml-1), LPS (1 μg·ml-1)+5-MTHF-Ca (10 μg·ml-1); experimental group: LPS (1 μg·ml-1)+curcumin (5 μg·ml-1)+5-MTHF-Ca (5 μg·ml-1). After 24 h, the culture supernatant was collected, and the cytokines IL-6, IL-1β and TNF-α were detected by ELISA.

[1] = tested on: methanol metabolism in rats; conditions: n=5
Experimental: Experiment 10 Effects of Drinking and 5-Methyltetrahydrofolate on the Formate in the Urine of SD Rats
In order to study the effects of 5-methyltetrahydrofolate and ethanol on methanol metabolism in rats, SPF-grade female SD rats, fasted overnight, were divided into 4 groups: (1) ethanol group, with intragastric administration of ethanol at a dose of 1 g/kg respectively at 1, 2, 3 h, n=7; (2) control group, with intragastric administration of glucose at a dose of 1.6 g/kg (equivalent to alcohol calories) respectively at 1, 2, and 3 h, n=5; (3) 5-methyltetrahydrofolate group, with intragastric administration of 5-methyltetrahydrofolate calcium at a dose of 4 mg/kg at 0 h, followed by glucose at a dose of 1.6 g/kg (equivalent to alcohol calories) respectively at 1, 2, and 3 h, n=5; (4) 5-methyltetrahydrofolate alcohol group, with intragastric administration of 5-methyltetrahydrofolate calcium at a dose of 4 mg/kg at 0 h, followed by ethanol at a dose of 1 g/kg respectively at 1, 2, and 3 h, n=5.
Food grade alcohol was used, with a methanol content of less than 5 mg/L. Urine was collected, from 0 to 24 h, into a test tube containing 0.1 mL of thioethanol and stored at −70° C. The urine samples were divided into three parts, of which gas chromatographic method, fluorescence method and HPLC-DNPH derivative method were used to detect ethanol and methanol contents (see Table 16), formate content, and formaldehyde content (see Table 17) in urine, respectively.
The method for detecting formate is as follows: 0.1 mL of urine was mixed with 0.1 mL of 10 mmol/L NAD+, 0.1 mL of potassium phosphate buffer (pH 7.4, 20 mmol/L) and 50 μL of formate dehydrogenase, then 0.1 mL of diaphorase (4 U/mL), 50 μL of resazurin solution (0.2 mg/ml) and 0.5 ml of phosphate buffer (pH 6.00, 200 mmol/L) were added. The mixture was incubated at 37° C. for 5 min, then immersed in boiling water for 3 min, and then cooled to room temperature. Fluorescence spectrophotometry was used to determine the content of formate in the mixture, with an emission wavelength of 590 nm and an absorption wavelength of 565 nm.
The method for detecting formaldehyde is as follows: 0.1 ml of urine was taken and filtered through filtering membrane, 0.05 ml of 2,4-dinitrophenylhydrazine (DNPH, 0.1 g/L) and 0.25 ml of trifluoroacetic acid were added to it. The sample was vortexed for 30 s, centrifuged, […]. HPLC was used for analysis, with a detection wavelength of 355 nm, column temperature of 35° C., and mobile phase of 65% acetonitrile.

[2] = 5-methyltetrahydrofolate calcium 4 mg/kg ig at 0 h + ethanol 1 g/kg at 1, 2, 3 h
[3] = 5-methyltetrahydrofolate calcium 4 mg/kg ig at 0 h + glucose 1.6 g/kg at 1, 2, 3 h

**Q.** With 5-methyltetrahydrofolate calcium as the compound, how does the TNF-α (TNF-α) read?
**A.** 489.21 ± 10.71 pg/mL

**Q.** How did the “Ethanol content in urine, 3 h” value [1, 2] turn out when `CN1c2c([nH]c(N)nc2=O)NCC1CNc1ccc(C(=O)N[C@@H](CCC(=O)O)C(=O)O)cc1` (stereo partly drawn) [5-methyltetrahydrofolate, N-[4-[[(2-amino-1,4,5,6,7,8-hexahydro-4-oxo-5-methyl-(6S), -(6R), and (6R,S)-pteridyl)methyl)amino)toluoyl-glutamic acid] was run?
**A.** 11.6 ± 1.3 mg/L

**Q.** What about the “Formaldehyde content in urine, 3 h” value [1, 2] of the same compound?
**A.** 0.8 ± 0.4 mg/L

**Q.** And the “Formate content in urine, 3 h” value [1, 2]?
**A.** 241 ± 42 mg/L

**Q.** What about the “Methanol content in urine, 3 h” value [1, 2] of the same compound?
**A.** 1.6 ± 0.3 mg/L

**Q.** And the “Ethanol content in urine, 4 h” value [1, 2]?
**A.** 25.2 ± 2.2 mg/L

**Q.** What about the “Formaldehyde content in urine, 4 h” value [1, 2] of the same compound?
**A.** 1.7 ± 0.6 mg/L

**Q.** And the “Formate content in urine, 4 h” value [1, 2]?
**A.** 255 ± 30 mg/L

**Q.** And the “Methanol content in urine, 4 h” value [1, 2]?
**A.** 2.5 ± 0.4 mg/L

**Q.** And the “Ethanol content in urine, 8 h” value [1, 2]?
**A.** 24.1 ± 2.3 mg/L

**Q.** What about the “Formaldehyde content in urine, 8 h” value [1, 2] of the same compound?
**A.** 2.9 ± 1.2 mg/L

**Q.** What about the “Formate content in urine, 8 h” value [1, 2] of the same compound?
**A.** 345 ± 43 mg/L

**Q.** And the “Methanol content in urine, 8 h” value [1, 2]?
**A.** 6.4 ± 1.0 mg/L

**Q.** What about the “Ethanol content in urine, 12 h” value [1, 2] of the same compound?
**A.** 11.8 ± 2.0 mg/L

**Q.** And the “Formaldehyde content in urine, 12 h” value [1, 2]?
**A.** 3.1 ± 1.0 mg/L

**Q.** And the “Formate content in urine, 12 h” value [1, 2]?
**A.** 351 ± 45 mg/L

**Q.** What about the “Methanol content in urine, 12 h” value [1, 2] of the same compound?
**A.** 4.4 ± 0.9 mg/L

**Q.** What about the “Ethanol content in urine, 16 h” value [1, 2] of the same compound?
**A.** 4.3 ± 0.8 mg/L

**Q.** What about the “Formaldehyde content in urine, 16 h” value [1, 2] of the same compound?
**A.** 1.9 ± 0.9 mg/L

**Q.** And the “Formate content in urine, 16 h” value [1, 2]?
**A.** 247 ± 48 mg/L

**Q.** And the “Methanol content in urine, 16 h” value [1, 2]?
**A.** 3.7 ± 0.9 mg/L

**Q.** What about the “Ethanol content in urine, 24 h” value [1, 2] of the same compound?
**A.** 1.7 ± 0.7 mg/L

**Q.** What about the “Formaldehyde content in urine, 24 h” value [1, 2] of the same compound?
**A.** 1.0 ± 0.5 mg/L

**Q.** And the “Formate content in urine, 24 h” value [1, 2]?
**A.** 211 ± 39 mg/L

**Q.** What about the “Methanol content in urine, 24 h” value [1, 2] of the same compound?
**A.** 1.9 ± 0.7 mg/L

**Q.** And the “Ethanol content in urine, 3 h” value [1, 3]?
**A.** 0.6 ± 0.4 mg/L

**Q.** And the “Formaldehyde content in urine, 3 h” value [1, 3]?
**A.** 0.8 ± 0.4 mg/L

**Q.** What about the “Formate content in urine, 3 h” value [1, 3] of the same compound?
**A.** 215 ± 33 mg/L

**Q.** And the “Methanol content in urine, 3 h” value [1, 3]?
**A.** 1.0 ± 0.3 mg/L

**Q.** What about the “Ethanol content in urine, 4 h” value [1, 3] of the same compound?
**A.** 0.8 ± 0.5 mg/L

**Q.** What about the “Formaldehyde content in urine, 4 h” value [1, 3] of the same compound?
**A.** 0.8 ± 0.5 mg/L

**Q.** And the “Formate content in urine, 4 h” value [1, 3]?
**A.** 237 ± 42 mg/L

**Q.** And the “Methanol content in urine, 4 h” value [1, 3]?
**A.** 1.1 ± 0.4 mg/L

**Q.** And the “Ethanol content in urine, 8 h” value [1, 3]?
**A.** 1.5 ± 0.4 mg/L

**Q.** What about the “Formaldehyde content in urine, 8 h” value [1, 3] of the same compound?
**A.** 0.7 ± 0.4 mg/L

**Q.** And the “Formate content in urine, 8 h” value [1, 3]?
**A.** 198 ± 36 mg/L

**Q.** And the “Methanol content in urine, 8 h” value [1, 3]?
**A.** 1.2 ± 0.4 mg/L

**Q.** What about the “Ethanol content in urine, 12 h” value [1, 3] of the same compound?
**A.** 1.5 ± 0.3 mg/L

**Q.** What about the “Formaldehyde content in urine, 12 h” value [1, 3] of the same compound?
**A.** 0.8 ± 0.3 mg/L

**Q.** And the “Formate content in urine, 12 h” value [1, 3]?
**A.** 187 ± 32 mg/L

**Q.** And the “Methanol content in urine, 12 h” value [1, 3]?
**A.** 1.1 ± 0.4 mg/L

**Q.** And the “Ethanol content in urine, 16 h” value [1, 3]?
**A.** 1.7 ± 0.5 mg/L

**Q.** What about the “Formaldehyde content in urine, 16 h” value [1, 3] of the same compound?
**A.** 0.8 ± 0.5 mg/L

**Q.** What about the “Formate content in urine, 16 h” value [1, 3] of the same compound?
**A.** 190 ± 41 mg/L

**Q.** And the “Methanol content in urine, 16 h” value [1, 3]?
**A.** 1.3 ± 0.5 mg/L

**Q.** And the “Ethanol content in urine, 24 h” value [1, 3]?
**A.** 1.6 ± 0.4 mg/L

**Q.** What about the “Formaldehyde content in urine, 24 h” value [1, 3] of the same compound?
**A.** 0.8 ± 0.4 mg/L

**Q.** And the “Formate content in urine, 24 h” value [1, 3]?
**A.** 188 ± 36 mg/L

**Q.** And the “Methanol content in urine, 24 h” value [1, 3]?
**A.** 1.1 ± 0.3 mg/L
